According to patent US8217176B2, “Fused heterocyclic derivative and use thereof” (Takeda Pharmaceutical Company Limited, priority 2008, dated 2012):

How the values were obtained:
[1] = system: NIH-3T3/Gli reporter cells; experiment: Evaluation of compound: Shh-N-induced luciferase activity in NIH-3T3/Gli reporter cells (Smo inhibitory action); assay type: cell-based; details: 48 hr; for inhibition at 1 µM: NIH3T3, 1 μM compound, mouse Shh-N end fragment supernatant, read-out: inhibition rate (%) at 1 μM
Outline: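 Compound added with Shh-N-containing HEK293 supernatant (D-MEM, 2% FBS) to stably transfected 8×Gli-luciferase NIH-3T3 cells, 48 hr at 37° C. Luciferase read by Bright-Glo luminescence. Inhibition relative to no-compound control as 100; IC50 from concentration–inhibition curve as concentration giving 50% of maximal inhibition.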

[2] = system: mouse medulloblastoma allogeneic transplantation model; experiment: In vivo anti-tumor test, mouse medulloblastoma allogeneic transplantation model; details: 6.25 mg/kg orally twice a day for 2 weeks; nude mouse, subcutaneous medulloblastoma from Patched 1(+/-), p53(-/-) mouse; end of administration
Description: According to the description in Sasaki, K. et al., (2006) Cancer Res. 66: 4215-4222, an anti-tumor effect of a compound was evaluated using a mouse medulloblastoma allogeneic transplantation model. To be precise, Patched 1 gene mutant mouse (lineage name: Ptch1tm1Mps/J) was purchased from The Jackson Laboratory and p53 gene mutant mouse (lineage name: P53N4-M, Nomenclature: B6.129-Trp53tm/BrdN4) was purchased from Taconic, and a mouse of Patched 1(+/−), p53(−/−) phenotype was prepared by mating. The tumor tissue of medulloblastoma spontaneously occurred in the cerebellum of 7- to 9-week-old Patched 1(+/−), p53(−/−) mouse was taken and subcutaneously transplanted into a nude mouse (lineage name: CAnN.Cg-Foxn1/CrlCrlj).
An anti-tumor test was performed using a tumor passaged by subcutaneous transplantation. A tumor mass was isolated by a 40 μm cell strainer (BD Biosciences, Cat. No. 352340), a tumor suspension was prepared with Leibovitz's L-15 medium (GIBCO, Cat. No. 11415-114) in a 2-fold amount relative to the tumor mass weight, mixed with an equivalent amount of matrigel (BD Biosciences, Cat. No. 356237), and subcutaneously transplanted to a mouse at […] per transplantation site. The tumor diameter after transplantation was measured and, when the tumor size reached 150-250 mm^3, the anti-tumor test was started using 5 mice per group.
The test compound was prepared to achieve a dose of 6.25 mg/kg with a 0.5% methylcellulose (Shin-Etsu Chemical Co., Ltd., Cat. No. SM-100) suspension, and orally administered twice a day for 2 weeks. The tumor size was calculated based on the longer diameter and shorter diameter of the tumor measured with an electron vernier caliper. After the start of the test, the tumor size was measured every 2 or 3 days and the growth rate of the tumor size was calculated. A tumor growth inhibitory effect of 95% or above was confirmed in each test compound administration group.
The tumor growth rate and the results of a significant difference test by the administration of each test compound are shown in the Table. The growth rate of the tumor size (T/C) was calculated according to: growth rate (T/C)=((tumor size of compound administration group at the end of administration)−(tumor size of compound administration group at the start of administration))/((tumor size of control group at the end of administration)−(tumor size of control group at the start of administration))×100.

With `CCOc1c(C(=O)NC2CCN(C(=O)CO)CC2)n(C)c2cc(CC)n(CC(=O)c3ccccc3)c(=O)c12` [Example 139, 3-ethoxy-6-ethyl-N-[1-(hydroxyacetyl)piperidin-4-yl]-1-methyl-4-oxo-5-(2-oxo-2-phenylethyl)-4,5-dihydro-1H-pyrrolo[3,2-c]pyridine-2-carboxamide] the inhibition at 1 µM [1] was 100% and the “T/C (%) growth rate of the tumor size” value [2] was 0.4%.

For `Cc1cc2c(c(OCC(F)(F)F)c(C(=O)NC3CCN(C(=O)CO)CC3)n2C)c(=O)n1CC(=O)c1ccccc1` [Example 140, N-[1-(hydroxyacetyl)piperidin-4-yl]-1,6-dimethyl-4-oxo-5-(2-oxo-2-phenylethyl)-3-(2,2,2-trifluoroethoxy)-4,5-dihydro-1H-pyrrolo[3,2-c]pyridine-2-carboxamide], the inhibition at 1 µM [1] was 100% and the “T/C (%) growth rate of the tumor size” value [2] was 5.3%.

For `COc1c(C(=O)NC2CCN(C(=O)CO)CC2)n(C)c2c1c(=O)n(CC(=O)c1ccccc1)c1ccccc21` [Example 124, N-[1-(hydroxyacetyl)piperidin-4-yl]-3-methoxy-1-methyl-4-oxo-5-(2-oxo-2-phenylethyl)-4,5-dihydro-1H-pyrrolo[3,2-c]quinoline-2-carboxamide], the inhibition at 1 µM [1] was 100% and the “T/C (%) growth rate of the tumor size” value [2] was 2.0%.

`CCc1cc2c(c(OCC(F)(F)F)c(C(=O)NC3CCN(C(=O)CO)CC3)n2C)c(=O)n1CC(=O)c1ccccc1` [Example 143, 6-ethyl-N-[1-(hydroxyacetyl)piperidin-4-yl]-1-methyl-4-oxo-5-(2-oxo-2-phenylethyl)-3-(2,2,2-trifluoroethoxy)-4,5-dihydro-1H-pyrrolo[3,2-c]pyridine-2-carboxamide] was tested, and the inhibition at 1 µM [1] was 100% and the “T/C (%) growth rate of the tumor size” value [2] was 0.0%.

`COc1c(C(=O)NC2CCN(CCO)CC2)n(C)c2c1c(=O)n(CC(=O)c1ccccc1)c1ccccc21` [Example 79, N-[1-(2-hydroxyethyl)piperidin-4-yl]-3-methoxy-1-methyl-4-oxo-5-(2-oxo-2-phenylethyl)-4,5-dihydro-1H-pyrrolo[3,2-c]quinoline-2-carboxamide] was tested, and the inhibition at 1 µM [1] was 100%, the IC50 ([1]; NIH3T3, mouse Shh-N end fragment supernatant, read-out: IC50 value (compound concentration necessary for achieving 50% of the maximum value of inhibition rate)) was at most 1 µM and the “T/C (%) growth rate of the tumor size” value [2] was 0.8%.
